Assay results as given in ChEMBL document CHEMBL1201862, “PubChem BioAssay data set” (2004).
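Each compound was tested at five concentrations against cells in 96-well plates for 48 hours. The concentration for 50% growth inhibition is given as GI50.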 Activity calls are given as the source filed them. No stated cut-off is given here; in the data, active = GI50 up to about 1.1 µM and inactive = higher.

Experiments:
Assay in all cases: NCI anticancer screen, dose series, 48 h
RPMI-8226 = test system: RPMI-8226
Hs-578T = test system: Hs-578T
KM12 = test system: KM12
EKVX = test system: EKVX
NCI-H460 = test system: NCI-H460
CAKI-1 = test system: CAKI-1
PC-3 = test system: PC-3
UACC-257 = test system: UACC-257
SK-MEL-5 = test system: SK-MEL-5
SNB-75 = test system: SNB-75
SR = test system: SR
K562 = test system: K562
HT-29 = test system: HT-29
OVCAR-4 = test system: OVCAR-4
HCC 2998 = test system: HCC 2998
COLO 205 = test system: COLO 205
SF-539 = test system: SF-539
M14 = test system: M14
OVCAR-5 = test system: OVCAR-5

Compound | GI50 (RPMI-8226) | GI50 (Hs-578T) | GI50 (KM12) | GI50 (EKVX) | GI50 (NCI-H460) | GI50 (CAKI-1) | GI50 (PC-3) | GI50 (UACC-257) | GI50 (SK-MEL-5) | GI50 (SNB-75) | GI50 (SR) | GI50 (K562) | GI50 (HT-29) | GI50 (OVCAR-4) | GI50 (HCC 2998) | GI50 (COLO 205) | GI50 (SF-539) | GI50 (M14) | GI50 (OVCAR-5)
CC(=O)c1cn(-c2ccc(Cl)cc2)c(=O)c2c(N)n[nH]c12 | > 100 µM (inactive) | > 100 µM (inactive) | > 100 µM (inactive) | > 100 µM (inactive) | > 100 µM (inactive) | > 100 µM (inactive) | > 100 µM (inactive) | > 100 µM (inactive) | > 100 µM (inactive) | > 100 µM (inactive) | > 100 µM (inactive) | 22.3 µM (inactive) | > 100 µM (inactive) | > 100 µM (inactive) | > 100 µM (inactive) | > 100 µM (inactive) |  |  | 
CCOc1ccc(/C(C=O)=C(\Cl)c2ccc(OC)cc2)cc1 | 5.73 µM (inactive) | 34.4 µM (inactive) | 56.6 µM (inactive) | > 52 µM (inactive) | > 100 µM (inactive) | > 40 µM (inactive) |  | 9.35 µM (inactive) | 41.7 µM (inactive) | 36.6 µM (inactive) | 5.16 µM (inactive) | 12.5 µM (inactive) | > 39.4 µM (inactive) | 9.82 µM (inactive) | 82.6 µM (inactive) | > 51.5 µM (inactive) | > 100 µM (inactive) | > 73.1 µM (inactive) | > 100 µM (inactive)
CCCC(=O)N[C@H]1C2C3CC4C5CC(C42)C1(C)C53 (some centres undefined) | > 100 µM (inactive) |  | > 100 µM (inactive) | > 100 µM (inactive) | > 100 µM (inactive) | > 100 µM (inactive) |  | > 100 µM (inactive) | > 100 µM (inactive) | > 100 µM (inactive) | > 100 µM (inactive) | > 100 µM (inactive) | > 100 µM (inactive) | > 100 µM (inactive) | > 100 µM (inactive) | > 100 µM (inactive) | > 100 µM (inactive) | > 100 µM (inactive) | > 100 µM (inactive)
N#CC(C#N)=C1NC(=O)C(c2ccccc2)C(=O)N1 (centres undefined) | > 100 µM (inactive) |  | > 100 µM (inactive) | > 100 µM (inactive) | > 100 µM (inactive) | > 100 µM (inactive) |  | > 100 µM (inactive) | > 100 µM (inactive) | > 100 µM (inactive) | > 100 µM (inactive) | > 100 µM (inactive) | > 100 µM (inactive) | > 100 µM (inactive) | > 100 µM (inactive) | > 100 µM (inactive) | > 100 µM (inactive) | > 100 µM (inactive) | > 100 µM (inactive)
CCOC(=O)[C@H]1C[C@@H](C(=O)c2ccccc2)N2N=C(c3ccc(Br)cc3)C=C[C@H]12 | > 100 µM (inactive) | > 100 µM (inactive) | > 100 µM (inactive) |  | > 100 µM (inactive) | > 100 µM (inactive) | > 100 µM (inactive) | > 100 µM (inactive) |  | > 100 µM (inactive) | 9.48 µM (inactive) | > 100 µM (inactive) |  | > 100 µM (inactive) | > 100 µM (inactive) | > 100 µM (inactive) |  | > 100 µM (inactive) | > 100 µM (inactive)
COC(=O)c1ccccc1Nc1nc(-c2cccs2)nc2cc(OC)c(OC)cc12 | 49.8 µM (inactive) | 30.3 µM (inactive) | 71.8 µM (inactive) | 37.9 µM (inactive) | 58.6 µM (inactive) | 39.4 µM (inactive) | 52.2 µM (inactive) | 70.8 µM (inactive) | > 100 µM (inactive) | 75.3 µM (inactive) | 18 µM (inactive) | > 100 µM (inactive) | > 100 µM (inactive) | 40.6 µM (inactive) |  | 45.4 µM (inactive) | 27.4 µM (inactive) | > 100 µM (inactive) | 36.2 µM (inactive)
CC[C@@H]1OC2(C)CC(S(=O)(=O)c3ccccc3O)CC1O2 (some centres undefined) | > 100 µM (inactive) |  | > 100 µM (inactive) | > 100 µM (inactive) | > 100 µM (inactive) | < 0.01 µM (active) |  | > 100 µM (inactive) | > 100 µM (inactive) | > 100 µM (inactive) | > 100 µM (inactive) | > 100 µM (inactive) | > 10 µM (inactive) | > 100 µM (inactive) | > 100 µM (inactive) | > 100 µM (inactive) | > 100 µM (inactive) | > 100 µM (inactive) | > 100 µM (inactive)
Cc1c(C(=O)OCc2ccccc2)[n+]([O-])c2cc(F)c(F)cc2[n+]1[O-] | 4.41 µM (inactive) | 0.306 µM (active) | 5.68 µM (inactive) | 3.26 µM (inactive) | 2.46 µM (inactive) | 2.15 µM (inactive) | 2.52 µM (inactive) | 2.19 µM (inactive) | 0.698 µM (active) | 2.7 µM (inactive) | 0.877 µM (active) | 0.264 µM (active) | 2.01 µM (inactive) | 1.77 µM (inactive) | 1.9 µM (inactive) | 3.61 µM (inactive) | 2.52 µM (inactive) | 1.77 µM (inactive) | 3.72 µM (inactive)
CC1(C)C2CCC1(CC(=O)O)C(Cl)C2 (centres undefined) | > 100 µM (inactive) | > 100 µM (inactive) | > 100 µM (inactive) | > 100 µM (inactive) | > 100 µM (inactive) | > 100 µM (inactive) | > 100 µM (inactive) | > 100 µM (inactive) | > 100 µM (inactive) | > 100 µM (inactive) |  | > 100 µM (inactive) | > 100 µM (inactive) | > 100 µM (inactive) | > 100 µM (inactive) | > 100 µM (inactive) | > 100 µM (inactive) | > 100 µM (inactive) | > 100 µM (inactive)
O=CC12c3ccccc3C(c3ccccc31)C1C(=O)NC(=O)C12 (centres undefined) |  |  | > 100 µM (inactive) | > 100 µM (inactive) | > 100 µM (inactive) | 54.2 µM (inactive) | > 100 µM (inactive) | > 100 µM (inactive) | 37.2 µM (inactive) | 39 µM (inactive) | > 100 µM (inactive) | 66.8 µM (inactive) | > 100 µM (inactive) | > 100 µM (inactive) | > 100 µM (inactive) | > 100 µM (inactive) | > 100 µM (inactive) | > 100 µM (inactive) | > 100 µM (inactive)
CC(=O)O[C@H]1[C@@H]2[C@@H]3[C@@H](C[C@H]1C)[C@@H](C)CO[C@@]1(C)CC/C=C(/C)C[C@@H]2O[C@@H]31 | > 100 µM (inactive) |  | > 100 µM (inactive) | > 100 µM (inactive) | > 100 µM (inactive) | > 100 µM (inactive) |  | > 100 µM (inactive) | > 100 µM (inactive) | > 100 µM (inactive) | > 100 µM (inactive) | > 100 µM (inactive) | > 100 µM (inactive) | > 100 µM (inactive) | 56.2 µM (inactive) | > 100 µM (inactive) | > 100 µM (inactive) | > 100 µM (inactive) | > 100 µM (inactive)
